We go through one compound from publication PMC6894869, “Fragment-based design of small molecule PCSK9 inhibitors using simulated annealing of chemical potential simulations” (PLoS ONE, 2019).

The experiment deals with PCSK9 (Homo sapiens, UniProt Q8NBP7). As to the kind of experiment: SPR competition assay against the EGFa domain of LDLR. It counts as binding.

Turning to `COc1ccc2nc(N)[nH]c2c1C#N` [Fig 12A, cyano-benzimidazole derivative], the IC50 came out at 103 µM.

The IC50 is the midpoint of a concentration-inhibition curve.
